Results as given in patent publication US6737383B1, “Herbicidal oxadiazolidines” (priority 1999, dated 2004).

Key:
blackgrass = experiment: Test B pre/postemergence blackgrass; type: in vivo, Alopecurus myosuroides
In short: (§1)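 Response is a visual 0-to-10 score relative to untreated plants, where 0 means no effect and 10 means complete control, taken twelve to sixteen days after application. Treatments went onto soil at planting and onto foliage of 1- to 4-leaf plants, using a surfactant-containing non-phytotoxic solvent.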

bamyardgrass = experiment: Test B flood test barnyardgrass; type: in vivo, Echinochloa crus-galli; details: for Plant response rating, Barnyardgrass (0 to 10 scale, 0 is no effect, 10 is complete control): Rate 62 g/ha; for Plant response rating, Barnyardgrass (0 to 10 scale, 0 is no effect, 10 is complete control) / Barnyardgrass plant response rating (0 to 10 scale, 0 is no effect, 10 is complete control): visual evaluation after twelve to sixteen days; for Barnyardgrass plant response rating (0 to 10 scale, 0 is no effect, 10 is complete control): Rate 125 g/ha, under heading Pre-emergence
In short: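 Plants were grown to the 2-leaf stage before treatment with test chemical, then held in a greenhouse for twelve to sixteen days. Injury was visually rated against untreated controls on a 0–10 scale, where 0 is no effect and 10 is complete control.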

surinam grass = experiment: Test B pre/postemergence surinam grass; type: in vivo, Brachiaria decumbens
In short: as §1

sugar beet = experiment: Test B pre/postemergence sugar beet; type: in vivo, Beta vulgaris
In short: as §1

[1] = Postemergence, Rate 250 g/ha, scale 0 to 10
[2] = Postemergence, Rate 500 g/ha, scale of 0 to 10 where 0 is no effect and 10 is complete control
[3] = Preemergence, Rate 62 g/ha, scale of 0 to 10 where 0 is no effect and 10 is complete control
[4] = Preemergence, Rate 125 g/ha, scale of 0 to 10 where 0 is no effect and 10 is complete control
[5] = Preemergence, Rate 250 g/ha, scale 0 to 10, 0 is no effect, 10 is complete control
[6] = Preemergence, Rate 500 g/ha, scale 0 to 10, 0 is no effect, 10 is complete control
[7] = Rate 62 g/ha, Postemergence, scale 0 to 10 (0 no effect, 10 complete control)
[8] = Rate 125 g/ha, Postemergence, scale 0 to 10, 0 is no effect, 10 is complete control
[9] = flood test species, Pre-emergence
[10] = Rate 250 g/ha, Pre-emergence (flood test species), scale 0 to 10, 0 is no effect, 10 is complete control
[11] = Rate 500 g/ha, Pre-emergence, flood test species, scale 0 to 10 (0 no effect, 10 complete control)
[12] = Postemergence, Rate 250 g/ha, scale 0 to 10, 0 no effect, 10 complete control
[13] = Postemergence, Rate 62 g/ha, scale of 0 to 10, 0 is no effect, 10 is complete control
[14] = Postemergence, Rate 125 g/ha, scale 0 to 10, 0 is no effect, 10 is complete control
[15] = Postemergence, Rate 500 g/ha, scale 0 to 10, 0 is no effect, 10 is complete control
[16] = Preemergence, Rate 125 g/ha, scale 0 to 10, 0 is no effect, 10 is complete control
[17] = Preemergence, Rate 500 g/ha, scale of 0 to 10 where 0 is no effect and 10 is complete control
[18] = Rate 250 g/ha, Postemergence, scale of 0 to 10 where 0 is no effect and 10 is complete control

CC(C)N(C(=O)n1oc(=O)n(CO)c1=O)c1ccc(Cl)cc1 [Compound 457]
Blackgrass plant response rating (blackgrass; [1]): 0
Blackgrass plant response rating (blackgrass; [2]): 0
Plant response rating, Blackgrass (blackgrass; [3]): 0
Plant response rating, Blackgrass (blackgrass; [4]): 0
Blackgrass plant response rating (blackgrass; [5]): 0
Blackgrass plant response rating (blackgrass; [6]): 0
Blackgrass plant response rating (blackgrass; [7]): 0
Blackgrass plant response rating (blackgrass; [8]): 0
Plant response rating, Barnyardgrass (0 to 10 scale, 0 is no effect, 10 is complete control) (bamyardgrass; [9]): 0
Barnyardgrass plant response rating (0 to 10 scale, 0 is no effect, 10 is complete control) (bamyardgrass; flood test species): 0
Barnyardgrass plant response rating (bamyardgrass; [10]): 0
Barnyardgrass plant response rating (bamyardgrass; [11]): 0
B. signalgrass plant response rating (surinam grass; [12]): 0
B. signalgrass plant response rating (surinam grass; [2]): 0
Plant response rating, B. signalgrass (surinam grass; [3]): 0
Plant response rating, B. signalgrass (surinam grass; [4]): 0
B. signalgrass plant response rating (surinam grass; [5]): 0
B. signalgrass plant response rating (surinam grass; [6]): 0
B. signalgrass plant response rating (surinam grass; [7]): 0
B. signalgrass plant response rating (surinam grass; [8]): 0
Sugarbeets plant response rating (sugar beet; [1]): 0
Plant response rating, Sugarbeets (sugar beet; [3]): 0
Plant response rating, Sugarbeets (sugar beet; [4]): 0
Sugarbeets plant response rating (sugar beet; [5]): 0
Sugarbeets plant response rating (sugar beet; [6]): 0
Sugarbeets plant response rating (sugar beet; [7]): 0
Sugarbeets plant response rating (sugar beet; [8]): 0

CC[Si](C)(C)Cn1c(=O)on(C(=O)N(c2ccc(Cl)cc2)C(C)C)c1=O [Compound 460]
Blackgrass plant response rating (blackgrass; [2]): 8
Plant response rating, Blackgrass (blackgrass; [3]): 0
Plant response rating, Blackgrass (blackgrass; [4]): 0
Blackgrass plant response rating (blackgrass; [5]): 0
Blackgrass plant response rating (blackgrass; [6]): 3
Blackgrass plant response rating (blackgrass; [7]): 2
Plant response rating, Barnyardgrass (0 to 10 scale, 0 is no effect, 10 is complete control) (bamyardgrass; [9]): 0
Barnyardgrass plant response rating (0 to 10 scale, 0 is no effect, 10 is complete control) (bamyardgrass; flood test species): 0
Barnyardgrass plant response rating (bamyardgrass; [10]): 0
Barnyardgrass plant response rating (bamyardgrass; [11]): 0
B. signalgrass plant response rating (surinam grass; [12]): 0
B. signalgrass plant response rating (surinam grass; [2]): 2
Plant response rating, B. signalgrass (surinam grass; [3]): 0
Plant response rating, B. signalgrass (surinam grass; [4]): 0
B. signalgrass plant response rating (surinam grass; [5]): 0
B. signalgrass plant response rating (surinam grass; [6]): 0
B. signalgrass plant response rating (surinam grass; [7]): 0
B. signalgrass plant response rating (surinam grass; [8]): 0
Sugarbeets plant response rating (sugar beet; [1]): 0
Plant response rating, Sugarbeets (sugar beet; [3]): 0
Plant response rating, Sugarbeets (sugar beet; [4]): 0
Sugarbeets plant response rating (sugar beet; [5]): 0
Sugarbeets plant response rating (sugar beet; [6]): 0
Sugarbeets plant response rating (sugar beet; [7]): 0
Sugarbeets plant response rating (sugar beet; [8]): 0

CC(C)N(C(=O)n1oc(=O)n(COC(=O)C(C)(C)C)c1=O)c1ccc(F)cc1 [Compound 462]
Blackgrass plant response rating (blackgrass; [1]): 0
Blackgrass plant response rating (blackgrass; [2]): 0
Plant response rating, Blackgrass (blackgrass; [3]): 0
Plant response rating, Blackgrass (blackgrass; [4]): 0
Blackgrass plant response rating (blackgrass; [5]): 0
Blackgrass plant response rating (blackgrass; [6]): 0
Blackgrass plant response rating (blackgrass; [7]): 0
Blackgrass plant response rating (blackgrass; [8]): 0
Plant response rating, Barnyardgrass (0 to 10 scale, 0 is no effect, 10 is complete control) (bamyardgrass; [9]): 0
Barnyardgrass plant response rating (0 to 10 scale, 0 is no effect, 10 is complete control) (bamyardgrass; flood test species): 0
Barnyardgrass plant response rating (bamyardgrass; [10]): 0
Barnyardgrass plant response rating (bamyardgrass; [11]): 0
B. signalgrass plant response rating (surinam grass; [12]): 0
B. signalgrass plant response rating (surinam grass; [2]): 0
Plant response rating, B. signalgrass (surinam grass; [3]): 0
Plant response rating, B. signalgrass (surinam grass; [4]): 0
B. signalgrass plant response rating (surinam grass; [5]): 0
B. signalgrass plant response rating (surinam grass; [6]): 0
B. signalgrass plant response rating (surinam grass; [7]): 0
B. signalgrass plant response rating (surinam grass; [8]): 0
Sugarbeets plant response rating (sugar beet; [1]): 0
Plant response rating, Sugarbeets (sugar beet; [3]): 0
Plant response rating, Sugarbeets (sugar beet; [4]): 0
Sugarbeets plant response rating (sugar beet; [5]): 0
Sugarbeets plant response rating (sugar beet; [6]): 0
Sugarbeets plant response rating (sugar beet; [7]): 0
Sugarbeets plant response rating (sugar beet; [8]): 0

COC(OC)C(C)n1c(=O)on(C(=O)N(c2ccc(F)cc2)C(C)C)c1=O (centres unmarked) [Compound 471]
Blackgrass plant response rating (blackgrass; [1]): 3
Blackgrass plant response rating (blackgrass; [2]): 7
Plant response rating, Blackgrass (blackgrass; [3]): 9
Plant response rating, Blackgrass (blackgrass; [4]): 10
Blackgrass plant response rating (blackgrass; [5]): 10
Blackgrass plant response rating (blackgrass; [6]): 10
Blackgrass plant response rating (blackgrass; [7]): 0
Blackgrass plant response rating (blackgrass; [8]): 2
Plant response rating, Barnyardgrass (0 to 10 scale, 0 is no effect, 10 is complete control) (bamyardgrass; [9]): 0
Barnyardgrass plant response rating (0 to 10 scale, 0 is no effect, 10 is complete control) (bamyardgrass; flood test species): 0
Barnyardgrass plant response rating (bamyardgrass; [10]): 0
Barnyardgrass plant response rating (bamyardgrass; [11]): 0
B. signalgrass plant response rating (surinam grass; [12]): 4
B. signalgrass plant response rating (surinam grass; [2]): 6
Plant response rating, B. signalgrass (surinam grass; [3]): 6
Plant response rating, B. signalgrass (surinam grass; [4]): 9
B. signalgrass plant response rating (surinam grass; [5]): 10
B. signalgrass plant response rating (surinam grass; [6]): 10
B. signalgrass plant response rating (surinam grass; [7]): 0
B. signalgrass plant response rating (surinam grass; [8]): 0
Sugarbeets plant response rating (sugar beet; [1]): 0
Plant response rating, Sugarbeets (sugar beet; [3]): 0
Plant response rating, Sugarbeets (sugar beet; [4]): 2
Sugarbeets plant response rating (sugar beet; [5]): 2
Sugarbeets plant response rating (sugar beet; [6]): 4
Sugarbeets plant response rating (sugar beet; [7]): 0
Sugarbeets plant response rating (sugar beet; [8]): 0

CC(C)N(C(=O)n1oc(=O)n(CCC2OCCCO2)c1=O)c1ccc(Cl)cc1 [Compound 532]
Blackgrass plant response rating (blackgrass; [13]): 0
Blackgrass plant response rating (blackgrass; [14]): 0
Plant response rating, Blackgrass (blackgrass; [15]): 0
Plant response rating, Blackgrass (blackgrass; [3]): 0
Blackgrass plant response rating (blackgrass; [16]): 0
Blackgrass plant response rating (0 to 10 scale) (blackgrass; Preemergence, Rate 250 g/ha): 0
Blackgrass plant response rating (blackgrass; [17]): 0
Plant response rating, Blackgrass (blackgrass; [18]): 0
Plant response rating, Barnyardgrass (0 to 10 scale, 0 is no effect, 10 is complete control) (bamyardgrass; [9]): 0
Barnyardgrass plant response rating (0 to 10 scale, 0 is no effect, 10 is complete control) (bamyardgrass; flood test species): 0
Barnyardgrass plant response rating (bamyardgrass; [10]): 9
Barnyardgrass plant response rating (bamyardgrass; Rate 500 g/ha, Pre-emergence section of Table B, 0 to 10 scale (0 no effect, 10 complete control)): 9
B. signalgrass plant response rating (surinam grass; [13]): 0
B. signalgrass plant response rating (surinam grass; [14]): 0
Plant response rating, B. signalgrass (surinam grass; [15]): 0
Plant response rating, B. signalgrass (surinam grass; [3]): 0
B. signalgrass plant response rating (surinam grass; [16]): 0
B. signalgrass plant response rating (0 to 10 scale, 0 is no effect, 10 is complete control) (surinam grass; Preemergence, Rate 250 g/ha): 0
B. signalgrass plant response rating (surinam grass; [17]): 0
Plant response rating, B. signalgrass (surinam grass; [18]): 0
Sugarbeets plant response rating (sugar beet; [13]): 0
Sugarbeets plant response rating (sugar beet; [14]): 0
Plant response rating, Sugarbeets (sugar beet; [15]): 0
Plant response rating, Sugarbeets (sugar beet; [3]): 0
Sugarbeets plant response rating (sugar beet; [16]): 2
Sugarbeets plant response rating (0 to 10 scale) (sugar beet; Preemergence, Rate 250 g/ha): 2
Sugarbeets plant response rating (sugar beet; [17]): 3
Plant response rating, Sugarbeets (sugar beet; [18]): 0
